Laboratory results as given in the supplement of paper PMC10307832.

Assays:
Assay in all cases: relative viability (nuclei count vs DMSO), 5 days (fraction); higher = more cells survive
Vemurafenib + Foretinib = compound: CCCS(=O)(=O)Nc1ccc(F)c(C(=O)c2c[nH]c3ncc(-c4ccc(Cl)cc4)cc23)c1F [Vemurafenib] + COc1cc2c(Oc3ccc(NC(=O)C4(C(=O)Nc5ccc(F)cc5)CC4)cc3F)ccnc2cc1OCCCN1CCOCC1 [Foretinib] (partner 0.25 µM)
In short: (§1)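 Lung cancer cell lines, seeded in 1536-well plates, were treated the following day by pin tool with a single drug or with five library-drug doses (not always all listed) in √10 steps on top of a fixed anchor-drug dose. Cells were fixed and nuclei stained in one step after 5 days, and nuclei were counted. Relative viability is the nuclei count for treated wells divided by that for vehicle wells, reported as medians of duplicate plates.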

OSI-027 + Lapatinib = compound: COc1cccc2cc(-c3nc([C@H]4CC[C@H](C(=O)O)CC4)n4ncnc(N)c34)[nH]c12 [OSI-027] + CS(=O)(=O)CCNCc1ccc(-c2ccc3ncnc(Nc4ccc(OCc5cccc(F)c5)c(Cl)c4)c3c2)o1 [Lapatinib] (partner 2 µM)
In short: as §1

OSI-027 = compound: COc1cccc2cc(-c3nc([C@H]4CC[C@H](C(=O)O)CC4)n4ncnc(N)c34)[nH]c12 [OSI-027]
In short: (§2)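 Lung cancer cell lines received five library-drug doses (not always all listed) spaced by √10, pinned on vehicle-anchored 1536-well plates after an overnight stay at 37 °C. Five days later, with no medium change, nuclei were Hoechst-stained, imaged at 4× and counted with MetaXpress. Viability is treated-well nuclei relative to vehicle-well nuclei, as a median across plates. Passing plates had control CV below 25% and at least one doubling.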

Vemurafenib = compound: CCCS(=O)(=O)Nc1ccc(F)c(C(=O)c2c[nH]c3ncc(-c4ccc(Cl)cc4)cc23)c1F [Vemurafenib]
In short: as §2

Row | Cell Line | relative viability (Vemurafenib + Foretinib; first compound 0.03162 µM) | relative viability (Vemurafenib + Foretinib; first compound 0.1 µM) | relative viability (Vemurafenib + Foretinib; first compound 0.3162 µM) | relative viability (Vemurafenib + Foretinib; first compound 1 µM) | relative viability (OSI-027 + Lapatinib; first compound 0.01 µM) | relative viability (OSI-027 + Lapatinib; first compound 0.03162 µM) | relative viability (OSI-027 + Lapatinib; first compound 0.1 µM) | relative viability (OSI-027 + Lapatinib; first compound 0.3162 µM) | relative viability (OSI-027 + Lapatinib; first compound 1 µM) | relative viability (OSI-027; 0.01 µM) | relative viability (OSI-027; 0.03162 µM) | relative viability (OSI-027; 0.1 µM) | relative viability (OSI-027; 0.3162 µM) | relative viability (OSI-027; 0.5 µM, anchor plate) | relative viability (OSI-027; 1 µM) | relative viability (Vemurafenib; 0.03162 µM) | relative viability (Vemurafenib; 0.1 µM) | relative viability (Vemurafenib; 0.3162 µM) | relative viability (Vemurafenib; 1 µM)
1 | COR-L23 | 0.864 | 0.92 | 0.854 | 0.957 | 0.887 | 1.2 | 0.744 | 1 | 0.34 | 1.11 | 0.94 | 1.04 | 0.943 | 0.769 | 0.537 | 0.943 | 0.979 | 0.927 | 1.09
2 | NCI-H2009 | 1.19 | 1.18 | 1.06 | 1.06 | 0.97 | 0.963 | 0.848 | 0.839 | 0.546 | 1.01 | 0.992 | 0.965 | 0.948 | 0.629 | 0.617 | 0.95 | 0.938 | 0.716 | 0.866
3 | NCI-H1755 | 0.882 | 0.889 | 0.891 | 0.832 | 1.01 | 1.06 | 1.01 | 0.817 | 0.579 | 0.983 | 0.921 | 0.988 | 0.898 | 0.745 | 0.78 | 0.958 | 0.969 | 0.823 | 0.957
4 | LCLC-97TM1 | 0.974 | 0.854 | 0.985 | 0.971 | 1.31 | 1.18 | 0.598 | 0.376 | 0.222 | 0.87 | 0.869 | 0.888 | 0.594 | 0.536 | 0.375 | 0.989 | 1.05 | 1.02 | 0.912
5 | NCI-H1703 | 0.358 | 0.307 | 0.329 | 0.374 | 1.33 | 1.1 | 0.889 | 0.736 | 0.365 | 0.913 | 0.948 | 0.759 | 0.657 |  | 0.434 | 1.02 | 0.864 | 0.795 | 0.986
6 | NCI-H2085 | 0.856 | 0.92 | 1.26 | 0.902 | 0.7 | 0.799 | 0.565 | 0.506 | 0.434 | 0.962 | 0.967 | 0.928 | 0.926 | 0.789 | 0.658 | 0.89 | 0.885 | 0.805 | 1.02
7 | NCI-H647 | 1.12 | 1.11 | 1.34 | 1.02 | 1.11 | 1.02 | 1.17 | 0.843 | 0.443 | 0.943 | 0.889 | 0.892 | 0.705 | 0.654 | 0.427 | 0.913 | 0.925 | 0.655 | 0.942
8 | BEN | 0.534 | 0.575 |  | 0.621 | 0.626 | 0.529 | 0.419 | 0.355 | 0.281 | 0.882 | 0.82 | 0.647 | 0.475 | 0.296 | 0.299 | 0.923 | 0.987 | 0.569 | 0.8
9 | NCI-H1944 | 0.868 | 0.614 | 0.879 | 0.837 | 0.802 | 0.875 | 0.799 | 0.631 | 0.444 | 0.916 | 0.915 | 0.808 | 0.743 | 0.457 | 0.567 | 0.939 | 0.772 | 0.895 | 0.933
10 | NCI-H1395 | 1.02 | 0.976 |  | 1.01 | 0.854 | 0.98 | 0.829 | 0.701 | 0.735 | 0.914 | 0.898 | 0.814 | 0.795 | 0.69 | 0.7 | 0.755 | 0.951 |  | 0.949
11 | 201T | 0.984 | 1 | 1.06 | 1.1 | 1.05 | 1.08 | 0.986 | 0.975 | 0.957 | 0.98 | 0.999 | 0.972 | 0.968 | 0.757 | 0.733 | 0.954 | 0.951 | 0.971 | 0.968
12 | NCI-H2405 | 1 | 1.03 |  | 1.03 | 1.03 | 0.996 | 0.798 | 0.852 | 0.539 | 0.981 | 0.981 | 0.887 | 0.795 | 0.646 | 0.518 | 0.945 | 0.955 |  | 0.98
13 | RERF-LC-KJ | 0.858 | 0.816 | 0.875 | 0.876 | 0.778 | 0.843 | 0.78 | 0.589 | 0.376 | 0.942 | 1.01 | 0.933 | 0.735 | 0.597 | 0.464 | 0.957 | 0.984 | 0.942 | 1.03
